From the Biogen ADME set (Fang et al. 2023) come the findings set out here.

In general, aqueous solubility refers to the dissolved amount per volume that the medium holds. A lower aqueous solubility goes with little dissolved substance.

In brackets after ≈: the same amount, converted by molar mass.

The conditions of this data set: for aqueous solubility: pH 6.8.

As for `O=C(CCc1ccco1)Nc1ccccc1OC(F)F`, the MDR1-MDCK efflux ratio worked out at 0.533; the intrinsic clearance, human liver microsomes is 116 mL/min/kg; the intrinsic clearance, rat liver microsomes worked out at 831 mL/min/kg; the aqueous solubility came to 44.6 µg/mL (≈ 159 µM).
As for `COc1ccc(/C=C/C(=O)c2c(C)nc3ccccc3c2N)c(OC)c1`, the intrinsic clearance, human liver microsomes amounted to 43.4 mL/min/kg; the intrinsic clearance, rat liver microsomes stood at 814 mL/min/kg; the aqueous solubility is 40.6 µg/mL (≈ 117 µM).
For `CCOc1c2c(c(OCC)c3ccccc13)C(=O)N(c1ccc(CC(=O)NS(=O)(=O)c3ccccc3)cc1)C2`, the MDR1-MDCK efflux ratio was 2.9; the intrinsic clearance, human liver microsomes was at most 4.74 mL/min/kg; the intrinsic clearance, rat liver microsomes worked out at 17.3 mL/min/kg.
For `CN1CCC[C@H]1C(=O)N[C@@H](CO)Cc1ccccc1`, in that order: 2.77, 7.16 mL/min/kg and 315 mL/min/kg.
In turn, `CN(NC(=O)c1ccn(-c2ccccc2)n1)c1ccccc1` registered an intrinsic clearance, human liver microsomes of 82.3 mL/min/kg; an intrinsic clearance, rat liver microsomes of 1900 mL/min/kg; an aqueous solubility of 58.1 µg/mL (≈ 199 µM).
On to `COc1cc(CNCCN2CCOCC2)cc(Cl)c1OCc1ccccc1`, for which the MDR1-MDCK efflux ratio worked out at 1.94; the intrinsic clearance, human liver microsomes came to 46.4 mL/min/kg; the intrinsic clearance, rat liver microsomes amounted to 330 mL/min/kg; the aqueous solubility is 53.5 µg/mL (≈ 137 µM).
For `CCC(=O)N1CCCc2cc(C(O)CN3CCN(c4ccc(OC)cc4)CC3)ccc21` (stereo unspecified), in that order: 1.69, 167 mL/min/kg, 283 mL/min/kg and 70 µg/mL (≈ 165 µM).
Regarding `COCc1noc(-c2ccc(-c3cc(C)cc(C)c3)nc2)n1`, the MDR1-MDCK efflux ratio turned out to be 0.295 and the aqueous solubility stood at 0.21 µg/mL (≈ 0.711 µM).
With `CC(=O)N1CCC2(C=Cc3cc(C)c(C)cc3O2)CC1`, the MDR1-MDCK efflux ratio turned out to be 0.579; the intrinsic clearance, human liver microsomes stood at 12.4 mL/min/kg; the intrinsic clearance, rat liver microsomes was 1020 mL/min/kg.
As for `Cc1nc(NC2(c3cccc(Cl)c3)CC2)c2c(C)noc2n1`, the MDR1-MDCK efflux ratio stood at 0.871; the intrinsic clearance, human liver microsomes was 9.21 mL/min/kg; the intrinsic clearance, rat liver microsomes stood at 254 mL/min/kg; the aqueous solubility was 41.4 µg/mL (≈ 131 µM).
For the compound `CN(CCOc1ccccc1)CC(=O)NCCc1ccccc1`, the MDR1-MDCK efflux ratio was determined as 0.728; the intrinsic clearance, human liver microsomes amounted to 267 mL/min/kg; the intrinsic clearance, rat liver microsomes came out at 5420 mL/min/kg.
For `O=C(Nc1cccc2ncccc12)[C@H]1CCCN(S(=O)(=O)c2ccc(F)cc2)C1`, the intrinsic clearance, human liver microsomes is 35.2 mL/min/kg and the intrinsic clearance, rat liver microsomes was found to be 698 mL/min/kg.
`Cc1ccc(Cl)c(OC[C@@]2(O)CN(C3CCC3)CC[C@@H]2O)c1`: the MDR1-MDCK efflux ratio was determined as 0.695; the intrinsic clearance, human liver microsomes was 166 mL/min/kg; the intrinsic clearance, rat liver microsomes was 2290 mL/min/kg.
For `CC(C)c1nnc(NCc2cc(F)cc(F)c2)o1`, in that order: 0.786, at most 4.74 mL/min/kg and 111 mL/min/kg.
Turning to `Cn1c(NC(=O)C2CC2c2ccc(Cl)cc2)nc2ccccc21` (stereo unspecified), the aqueous solubility came to 0.3 µg/mL (≈ 0.921 µM).
Regarding `O=S(=O)(c1ccccc1Cl)N1CCCc2cnc(N3CCOCC3)nc21`, the MDR1-MDCK efflux ratio worked out at 0.697 and the aqueous solubility was 1 µg/mL (≈ 2.53 µM).
Regarding `Cc1cc(C)c2ccc(C(=O)N3CCN(c4ncc[nH]c4=O)CC3)cc2n1`, the MDR1-MDCK efflux ratio was 65.9; the intrinsic clearance, human liver microsomes is at most 4.74 mL/min/kg; the intrinsic clearance, rat liver microsomes is 53.4 mL/min/kg.
`CN(CC(=O)NC1(C#N)CCCCC1)c1cccc(C#N)c1`: the MDR1-MDCK efflux ratio was 10.4; the intrinsic clearance, human liver microsomes was found to be 85.8 mL/min/kg; the intrinsic clearance, rat liver microsomes turned out to be 701 mL/min/kg; the aqueous solubility is 20.3 µg/mL (≈ 68.4 µM).
For `Cc1ccc(-c2ccnc(N3C[C@@H](C)NC[C@@H]3C)n2)c(C)n1`, in that order: 25.7, at most 4.74 mL/min/kg, 78.7 mL/min/kg and 25.9 µg/mL (≈ 87.2 µM).
For `O=C(CN1CCC(c2ccccc2)CC1)N1CCNC1=O`, in that order: 1.06, at most 4.74 mL/min/kg, 65.2 mL/min/kg and 49.1 µg/mL (≈ 171 µM).
Take `c1ccc(COc2ccc(CNCC3CCNCC3)cc2)cc1`: the MDR1-MDCK efflux ratio amounted to 4.9; the intrinsic clearance, human liver microsomes was at most 4.74 mL/min/kg; the intrinsic clearance, rat liver microsomes stood at 21.1 mL/min/kg; the aqueous solubility turned out to be 25.2 µg/mL (≈ 81.2 µM).
For `COc1cccc(N(C)CCC(=O)N2CCC(c3ccc(-c4ccc(N)nc4)cn3)CC2)c1`, in that order: 6.73, 821 mL/min/kg, 1770 mL/min/kg and 47 µg/mL (≈ 106 µM).
As to `Fc1ccc(F)c(CN2CCN(Cc3ccc4c(c3)OCO4)CC2)c1`, the MDR1-MDCK efflux ratio was 0.645; the intrinsic clearance, human liver microsomes stood at 105 mL/min/kg; the intrinsic clearance, rat liver microsomes worked out at 409 mL/min/kg; the aqueous solubility came out at 26.9 µg/mL (≈ 77.7 µM).
For `Clc1cc2ncc(-n3ccnc3)nc2cc1Cl`, in that order: 0.485, 16.8 mL/min/kg, 134 mL/min/kg and 2.96 µg/mL (≈ 11.2 µM).
In turn, `NC(=O)Cn1nnc(-c2ccccc2)n1` yielded an aqueous solubility of 11 µg/mL (≈ 54.1 µM).
In turn, `Cc1ccc(NC(=O)c2cc(F)cc(F)c2)nc1` gave an intrinsic clearance, human liver microsomes of 276 mL/min/kg; an intrinsic clearance, rat liver microsomes of 285 mL/min/kg; an aqueous solubility of 7.52 µg/mL (≈ 30.3 µM).
`CSC[C@H]1CN(Cc2c[nH]c3c(N)ncnc23)C[C@@H]1O` showed an intrinsic clearance, human liver microsomes of at most 4.74 mL/min/kg and an intrinsic clearance, rat liver microsomes of at most 10.7 mL/min/kg.
`COCCN1CCOc2nc3c(C)cccc3cc2C1`: the MDR1-MDCK efflux ratio was determined as 0.564; the intrinsic clearance, human liver microsomes was 14.7 mL/min/kg; the intrinsic clearance, rat liver microsomes came to 882 mL/min/kg.
On to `CC(=O)N1CCN([C@H]2CCN(C(=O)c3cc4cc(C)ccc4o3)CC[C@@H]2O)CC1`, for which the MDR1-MDCK efflux ratio stood at 38.8; the intrinsic clearance, human liver microsomes was determined as 7.28 mL/min/kg; the intrinsic clearance, rat liver microsomes amounted to 153 mL/min/kg.
Turning to `Clc1ccccc1CNCc1ccc2c(c1)OCCO2`, the MDR1-MDCK efflux ratio is 0.443; the intrinsic clearance, human liver microsomes was 479 mL/min/kg; the intrinsic clearance, rat liver microsomes stood at 2170 mL/min/kg; the aqueous solubility is 24.5 µg/mL (≈ 84.6 µM).
For `CC[C@@H]1[C@H](F)C(=O)N[C@@H]1COc1nccc2cc(C(N)=O)c(OC)cc12`, the MDR1-MDCK efflux ratio turned out to be 61.7; the intrinsic clearance, human liver microsomes is 35 mL/min/kg; the intrinsic clearance, rat liver microsomes turned out to be 218 mL/min/kg; the aqueous solubility is 53.6 µg/mL (≈ 148 µM).
With `CN1CCCN(c2nc(C(F)(F)F)nc3cc4c(cc23)OCO4)CC1`, the MDR1-MDCK efflux ratio is 1.11; the intrinsic clearance, human liver microsomes was 22.3 mL/min/kg; the intrinsic clearance, rat liver microsomes stood at 209 mL/min/kg; the aqueous solubility amounted to 43.3 µg/mL (≈ 122 µM).
Take `CN(Cc1cccnc1)Cc1ccc(C#N)o1`: the MDR1-MDCK efflux ratio is 0.648; the intrinsic clearance, human liver microsomes amounted to 9.78 mL/min/kg; the intrinsic clearance, rat liver microsomes was determined as 69.7 mL/min/kg; the aqueous solubility worked out at 30.7 µg/mL (≈ 135 µM).
